This experiment deals with bovine retinal homogenate. The experiment can be described thus: Ferrous chloride-induced peroxidation of bovine retinal homogenate in vitro, TBA value (Experiment 1 (A)). The class given is biochemical. The settings on record: 10^-4 M. The procedure: (A) In vitro experiment using a bovine retinal homogenate:
Effects of 2-O-octadecylascorbic acid on the peroxidation induced by adding ferrous chloride to a bovine retinal homogenate were examined.
(1) Retinae were removed from bovine eyeballs (1/2 eye). Physiological saline was added to the retinae to prepare bovine retinal homogenates.
(2) Ferrous chloride (0.5 mM, dissolved in distilled water) was added to each of the retinal homogenates obtained in the above. Further, 2-O-octadecylascorbic acid and α-tocopherol were added to the resulting homogenates to final concentrations of the reaction mixtures of 10^-4 M, respectively. Further, distilled water was added to each of the homogenates to adjust a total volume to 1 ml. 2-O-octadecylascorbic acid and α-tocopherol were dissolved and diluted with ethanol. Thus, the final concentrations of ethanol in all of the reaction mixtures were adjusted to 1%. Then, the mixtures were subjected to reaction at 37° C. for 1 hour.
(3) 0.35% thiobarbituric acid (hereinafter referred to as TBA) reagent (50% aqueous acetic acid solution)(1 ml) was added to the reaction mixtures or standard solutions of the retinal homogenates obtained in the above (2). The mixtures were subjected to reaction in boiling water at 100° C. for 1 hour. After water cooling, n-butanol (2 ml) was added, and the mixtures were shaken for 5 minutes and centrifuged at 3000 rpm for 10 minutes. Fluorescence intensities (excitation wave length: 515 nm, emission wave length: 553 nm) were determined for the n-butanol layer. Proteins were determined using Bio-Rad Protein Assay Kit (trade name).

Consider `Cc1c(C)c2c(c(C)c1O)CCC(C)(CCCC(C)CCCC(C)CCCC(C)C)O2` (stereo not drawn) [α-Tocopherol, α-tocopherol, reference compound], for which the “Retina: TBA value” (0.5 mM ferrous chloride, 37° C., 1 hour, mean ± S.D., n=3, p < 0.001 vs control) is listed as 2.38 ± 0.12 nM malondialdehyde/mg protein. The Inhibitory ratio (ferrous chloride control = 0, blank = 100, 60 min) was 61.6%.

For the origin of these results see patent publication US5665769A, “Pharmaceutical composition for preventing and treating retinal diseases” (Senju Pharmaceuticals Co., Ltd., priority 1993, dated 1997).
